This is an account of results in ChEMBL document CHEMBL1124754, “Hypoxia-selective antitumor agents. 4. Relationships between structure, physicochemical properties, and hypoxia-selective cytotoxicity for nitracrine analogues with varying side chains: the "iminoacridan hypothesis"” (J Med Chem, 1990).

Structures are written as SMILES.

A short description of series [1]: Hypersensitivity factor, IC50 (AA8) air /IC50 (UV4) in air. Type of series: functional.
Series [2] in a line: IC50 (air/N2) ratio of the drug to reduce cell numbers to 50 percent of controls using AA8 cells in the microassay. Type of series: functional, Cricetulus griseus, CHO-AA8.
Series [3] in a line: Hypersensitivity factor, IC50 (AA8) air /IC50 (UV4) in N2. Type of series: functional.
Series [4] can be described thus: Tested for the concentration of the drug to reduce cell numbers to 50 percent of controls against AA8 cells in the microassay. Type of series: functional, cell-based, Cricetulus griseus. Particulars: cho-aa8.
Series [5] in a line: Tested for the product of the drug concentration to the exposure time needed to reduce cell survival to 10% of controls using AA8 cells at 10 E 6 /mL in the clonogenic assay. The class given is functional, Cricetulus griseus, CHO-AA8.
Series [6] in a line: CT10 (air/N2) ratio of the product of the drug concentration to the exposure time needed to reduce cell survival to 10% of controls using AA8 cells at 10 E 6 /mL in the clonogenic assay. The class given is functional, Cricetulus griseus, CHO-AA8.
Series [7] can be described thus: Acridine pKa values were determined in aqueous solution at 25 degrees Centigrade by spectrophotometric method. Type of series: physicochemical.
The nature of series [8]: CT10 (air/N2) ratio of the product of the drug concentration to the exposure time needed to reduce cell survival to 10% of controls using AA8 cells at 10 E 6 /mL in the clonogenic assay; range is 1-2. The class given is functional, Cricetulus griseus, CHO-AA8.
Series [9] can be described thus: CT10 (air/N2) ratio of the product of the drug concentration to the exposure time needed to reduce cell survival to 10% of controls using AA8 cells at 10 E 6 /mL in the clonogenic assay; range is 0.8-1.5. Type of series: functional, Cricetulus griseus, CHO-AA8.

For `O=C(O)CCCNc1c2ccccc2nc2cccc([N+](=O)[O-])c12`, the HF in series [1] turned out to be 6.1; in [3], 6.6. Besides, the IC50 ratio in series [2] came to 4.2. The IC50 in series [4] turned out to be 18 µM. Further, the CT10 in series [5] worked out at 50 µM·h. Besides, in series [6], the CT10 ratio is on record as 2.5.

Take `O=[N+]([O-])c1cccc2nc3ccccc3c(NCCCO)c12`: the HF was determined as 15 in [1] and 13 in [3]. For the same compound, in series [2], the IC50 ratio is 1.45. In [7], this compound displayed a pKa of 7.55. Also, half-maximal inhibition in series [4] (IC50) required 0.027 µM. The CT10 in [5] came to 0.43 µM·h. In [6], the CT10 ratio was 3.

In the case of `CN(C)CCCCCCNc1c2ccccc2nc2cccc([N+](=O)[O-])c12`, the IC50 ratio in [2] amounted to 1.55. For the same compound, the pKa in series [7] came out at 7.4. It took 0.0115 µM to reach half-maximal inhibition in [4] (IC50). Besides, in [5], the CT10 was 0.38 µM·h. The CT10 ratio in series [6] amounted to 6.8.

As for `O=[N+]([O-])c1cccc2nc3ccccc3c(NCCc3ccccc3)c12`, the results for the HF in series [1] and in [3] were 14 and 15, respectively. In [2], the IC50 ratio is on record as 1.3. In series [7], this compound displayed a pKa of 7.4. In [4], the IC50 was 0.122 µM. The CT10 in [5] is 2.8 µM·h. Also, the CT10 ratio in [6] amounted to 2.3.

In the case of `CC(C)CCNc1c2ccccc2nc2cccc([N+](=O)[O-])c12`, the HF in series [1] came out at 12; in [3], 16. Also, the IC50 ratio in [2] is recorded as 1.13. In series [7], the pKa is 7.4. The same compound had an IC50 in series [4] of 0.12 µM. The compound further returned a CT10 in series [5] of 3.2 µM·h. Moreover, in series [6], the CT10 ratio is 2.4.

In the case of `CNCCCNc1c2ccccc2nc2cccc([N+](=O)[O-])c12`, the HF in [1] was 14; in [3] it was 11. Besides, the IC50 ratio in series [2] is on record as 4.8. The compound also registered a pKa in [7] of 6.2. The IC50 in [4] was found to be 0.034 µM. The same compound yielded a CT10 in series [5] of 0.38 µM·h. Also, the CT10 ratio in series [6] came to 5.9.

With `Nc1c2ccccc2nc2cccc([N+](=O)[O-])c12`, the HF in [1] stood at 4.5; in [3] it was 5.8. Also, the IC50 ratio in series [2] turned out to be 1.02. Besides, the pKa in series [7] turned out to be 7.3. The compound further came in with an IC50 in [4] of 3.6 µM. The CT10 in [5] is 3.9 µM·h. Further, in series [8], the CT10 ratio was 2.

As for `CN(C)CCCCNc1c2ccccc2nc2cccc([N+](=O)[O-])c12`, the figures for the HF in [1] and in series [3] were 20 and 29, respectively. Further, in series [2], the IC50 ratio was found to be 2.6. The same compound showed a pKa in series [7] of 6.9. This compound also gave an IC50 in series [4] of 0.026 µM. For the same compound, in series [5], the CT10 was 0.46 µM·h. Further, in series [6], the CT10 ratio is 11.9.

For `CN(C)CCCCCNc1c2ccccc2nc2cccc([N+](=O)[O-])c12`, the IC50 ratio in series [2] stood at 1.65. The pKa in [7] is 7.4. In series [4], the IC50 stood at 0.0155 µM. Besides, in [5], the CT10 is 0.32 µM·h. Also, the CT10 ratio in [6] turned out to be 7.

With `CNc1c2ccccc2nc2cccc([N+](=O)[O-])c12`, the HF in series [1] and in series [3] was 11 in each case. Besides, the IC50 ratio in series [2] was 1.3. In addition, in series [7], the pKa was 7.2. This compound yielded an IC50 in series [4] of 0.0038 µM. The same compound returned a CT10 in series [5] of 0.01 µM·h. Moreover, the CT10 ratio in series [9] is recorded as 1.5.

For `CN(C)CCCNc1c2ccccc2nc2cccc([N+](=O)[O-])c12` [NITRACRINE], the HF in series [1] came to 12.9; in [3], 14.9. Moreover, the IC50 ratio in series [2] is given as 3.5. In series [7], this compound displayed a pKa of 6.2. Besides, 0.0263 µM corresponded to half-maximal inhibition in series [4] (IC50). The CT10 in series [5] came out at 0.47 µM·h. In addition, the CT10 ratio in series [6] amounted to 9.9.

For `CN(C)CCNc1c2ccccc2nc2cccc([N+](=O)[O-])c12`, the HF in series [1] was 19; in [3], 15. For the same compound, in series [2], the IC50 ratio was found to be 7.4. In series [7], this compound came in with a pKa of 4.9. Moreover, the half-maximal inhibitory concentration (IC50) in [4] came to 0.047 µM. In [5], this compound yielded a CT10 of 1.22 µM·h. Further, the CT10 ratio in series [6] worked out at 14.

As for `O=[N+]([O-])c1cccc2nc3ccccc3c(NCCO)c12`, the HF in series [1] worked out at 15; in [3], 18. The IC50 ratio in series [2] is on record as 1.1. This compound also gave a pKa in series [7] of 7.2. In addition, the IC50 in [4] was found to be 0.0115 µM. Besides, the CT10 in [5] came to 0.13 µM·h. Also, the CT10 ratio in [6] is recorded as 3.2.

On to `O=[N+]([O-])c1cccc2nc3ccccc3c(NCc3ccccc3)c12`, for which the results for the HF in series [1] and in series [3] were 12 and 17, respectively. In addition, the IC50 ratio in [2] worked out at 1.2. In [7], the pKa worked out at 7.4. Further, the IC50 in series [4] turned out to be 0.38 µM. Moreover, the CT10 in series [5] came to 9 µM·h. Moreover, the CT10 ratio in [6] is listed as 1.9.

Regarding `CCCNc1c2ccccc2nc2cccc([N+](=O)[O-])c12`, the HF worked out at 11 in series [1] and 20 in [3]. In series [2], the IC50 ratio is 1.42. In series [7], this compound gave a pKa of 7.2. Besides, in [4], half-maximal inhibition (IC50) required 0.032 µM. In [5], this compound had a CT10 of 0.62 µM·h. The CT10 ratio in [6] is given as 3.4.
